Experimental data taken from US20250134853A1, “COMPOUNDS AND METHODS FOR USING GALLOYLATED POLYPHENOLS TO TREAT DISEASES MEDIATED BY THIOL ISOMERASES” (Beth Israel Deaconess Medical Center, Inc., priority 2023, published 2025).
“Also recorded” adds a separate entry of the source.

What was measured:
SARS-CoV-2 = experiment: Vero E6-based viral replication assay; type: cell-based
ERp72 = biological target: T1, ERp72 (Homo sapiens, UniProt P13667); experiment: Di-eosin-GSSG disulfide reductase assay, ERp72; type: biochemical
T1 construct: recombinant His-tagged full-length ERp5, ERp72; His-tag; made in house; host or cells: Escherichia coli Origami B (DE3)
T1 sequence (P13667 21-645): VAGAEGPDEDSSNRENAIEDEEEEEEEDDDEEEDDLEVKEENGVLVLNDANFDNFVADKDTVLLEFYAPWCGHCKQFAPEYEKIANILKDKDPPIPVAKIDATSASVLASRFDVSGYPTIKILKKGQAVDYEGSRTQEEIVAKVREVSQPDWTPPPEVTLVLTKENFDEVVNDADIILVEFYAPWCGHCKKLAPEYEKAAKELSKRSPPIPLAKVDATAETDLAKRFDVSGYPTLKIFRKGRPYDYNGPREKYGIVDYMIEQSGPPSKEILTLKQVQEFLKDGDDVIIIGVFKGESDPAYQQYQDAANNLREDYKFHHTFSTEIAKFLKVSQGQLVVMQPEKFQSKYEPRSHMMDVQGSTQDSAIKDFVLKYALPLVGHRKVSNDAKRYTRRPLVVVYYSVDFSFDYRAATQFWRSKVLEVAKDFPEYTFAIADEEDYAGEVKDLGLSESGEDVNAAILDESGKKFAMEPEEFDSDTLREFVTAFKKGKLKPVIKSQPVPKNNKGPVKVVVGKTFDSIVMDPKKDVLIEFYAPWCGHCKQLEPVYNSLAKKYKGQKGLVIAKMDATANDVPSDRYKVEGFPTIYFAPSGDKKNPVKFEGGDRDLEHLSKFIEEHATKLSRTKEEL
Excerpt: Recombinant protein purification. Recombinant ‘double-tagged’ (streptavidin-binding protein-tagged and FLAG-tagged) full-length PDI, ERp57, recombinant His-tagged full-length ERp5, ERp72, PDI domain fragments, and PDI mutant were cloned into a pET-15b vector at the NdeI and BamHI sites and transformed into Escherichia coli Origami B (DE3) cells (EMD Chemicals). The recombinant proteins were expressed and isolated by affinity chromatography with complete His-Tag purification resin (Roche Applied Science) or Pierce High-Capacity Streptavidin Agarose beads and purified on a Superdex 200 (GE Healthcare).
Di-eosin-GSSG disulfide reductase assay. […] Any fraction with a fold change >5 was kept.

PDI [1] = biological target: T2, PDI (Homo sapiens, UniProt P07237); experiment: Jump dilution reversibility, di-eosin-GSSG assay; type: biochemical; settings: 50 μM, 30 min, then 100-fold dilution
T2 construct: FLAG; made in house; host or cells: Escherichia coli Origami B (DE3)
Method: FIGS. 6A and 6B are plots showing % PDI activity. […] To test reversibility, the samples containing 50 μM compounds were then diluted 1:100. PDI activity was evaluated using a di-eosin-GSSG reductase assay. Data represented as mean SEM.
After 30 minutes of equilibration, the PDI-inhibitor mixture was diluted 100-fold with thiol isomerase assay buffer where the final concentration of enzyme is 0.2 μM and compounds at 500 nM or 50 μM. Di-eosin-GSSG was added to a final concentration of 300 nM and the assay was immediately recorded for 1 h.

[2] = test system: PDI mutants in which His55 and His399 were replaced; settings: 10 μM PGHG, 15 min
Method: Data represented as mean±SEM.
Di-eosin-GSSG disulfide reductase assay. […] Di-eosin-GSSG cleavage of purified thiol isomerases and PDI domains was monitored in a 96-well fluorescence plate format. PDI, CGXC-PDI variants, ERp5, ERp57, ERp46 and PDI domains were assayed at 50 nM in the presence or absence of the indicated small molecules. The assay included a thiol isomerase assay buffer (39 mM KH2PO4, 61 mM K2HPO4, 2 mM EDTA, 5 M DTT, pH 7.4) and 150 nM of the di-eosin-GSSG probe. The increase in fluorescence was determined for 60 min by excitation at 520 nm and emission at 550 nm in a Synergy Biotek 4. The reduction of 150 nM di-eosin-GSSG by 5 μM DTT in the presence or absence of mentioned small molecule or proteins served as a negative control.

[3] = test system: PDI domain fragments (a, a′, ab, abb′, b′xa′); experiment: Di-eosin-GSSG assay on isolated PDI domain fragments; type: biochemical; settings: a, ab, b′xa′, abb′ fragments; PGHG at 10 μM
Method: Di-eosin-GSSG disulfide reductase assay. The probe di-eosin glutathione disulfide, di-eosin-GSSG, was prepared by incubating 100 μM of GSSG with 1 mM of eosin isothiocyanate in 100 mM potassium phosphate containing 2 mM EDTA (pH 7.4), at 25° C. overnight in the dark. The mixture was passed down a PD-10 column and different fractions were collected. A fold change of fluorescence (Ex: 520 nm, Em: 550 nm) was calculated using samples subjected to either vehicle or 20 mM of DTT. Any fraction with a fold change >5 was kept. Using a stock of 10 mM eosin isothiocyanate, a standard curve was generated and concentration of samples were determined accordingly. Di-eosin-GSSG cleavage of purified thiol isomerases and PDI domains was monitored in a 96-well fluorescence plate format. PDI, CGXC-PDI variants, ERp5, ERp57, ERp46 and PDI domains were assayed at 50 nM in the presence or absence of the indicated small molecules. The assay included a thiol isomerase assay buffer (39 mM KH2PO4, 61 mM K2HPO4, 2 mM EDTA, 5 M DTT, pH 7.4) and 150 nM of the di-eosin-GSSG probe. The increase in fluorescence was determined for 60 min by excitation at 520 nm and emission at 550 nm in a Synergy Biotek 4. The reduction of 150 nM di-eosin-GSSG by 5 μM DTT in the presence or absence of mentioned small molecule or proteins served as a negative control.

SARS-CoV-2 M^pro = SARS-CoV-2 M^pro (Severe acute respiratory syndrome coronavirus 2, UniProt P0DTD1); settings: literature values (Table 2); read-out: SARS-CoV-2 M^pro inhibition; cited from earlier work
PDI [4] = biological target: T2, PDI; experiment: SDS-PAGE molecular weight shift (alkylation of PDI free thiols); type: biochemical
Excerpt: FIG. 5 is an image of gel showing detection of PDI free thiol by the labeling of acetamido maleimidylstilbene disulfonic acid (AMS), which shifts the protein to a higher apparent molecular weight.
4-acetomido-4′-maleimidylstilbene-2,2′ disulfonic acid (AMS), which shifts the mass of the protein by 500 Da for every cysteine alkylated, was used as a positive control. […] N-ethylmaleimide (NEM) was used for a control experiment because covalent alkylation of the free thiols will expectedly prevent PDI activity (FIG. 6A).

T2 sequence (P07237 18-508): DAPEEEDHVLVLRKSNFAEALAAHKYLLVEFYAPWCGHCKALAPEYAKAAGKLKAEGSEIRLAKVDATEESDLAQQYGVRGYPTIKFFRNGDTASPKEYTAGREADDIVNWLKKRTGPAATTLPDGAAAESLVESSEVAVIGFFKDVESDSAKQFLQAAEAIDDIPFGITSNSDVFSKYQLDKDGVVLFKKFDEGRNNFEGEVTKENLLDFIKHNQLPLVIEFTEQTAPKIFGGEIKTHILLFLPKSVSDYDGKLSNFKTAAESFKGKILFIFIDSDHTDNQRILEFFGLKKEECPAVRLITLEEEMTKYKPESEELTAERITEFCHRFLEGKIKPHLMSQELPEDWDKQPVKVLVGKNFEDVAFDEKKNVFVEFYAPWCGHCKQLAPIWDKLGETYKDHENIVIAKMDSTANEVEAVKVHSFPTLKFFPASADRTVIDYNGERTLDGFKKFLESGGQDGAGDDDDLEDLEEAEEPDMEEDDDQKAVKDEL

For `O=C(O[C@@H]1[C@@H](O)[C@H](Oc2cc(O)c3c(c2)O[C@H](c2ccccc2)CC3=O)O[C@@H]2COC(=O)c3cc(O)c(O)c(O)c3-c3c(cc(O)c(O)c3O)C(=O)O[C@@H]12)c1cc(O)c(O)c(O)c1` [PGHG, pinocembrin 7-O-(3″-galloyl-4″,6″-(S)-hexahydroxydiphenoyl)-beta-D-glucose], the IC50 (SARS-CoV-2) was 4.9 µM, the IC50 (ERp72) was 7.8 µM and the “reversibility of PDI inhibition” value (PDI [1]) was “inhibitory activity was lost following a 100-fold dilution”. For the same compound, the “susceptibility of His55/His399 PDI mutants (Ala, Asp, Arg)” value [2] was “mutants were resistance to PGHG”, the “inhibition of isolated PDI fragments” value [3] was “inhibited a and a′ fragments as well as ab, b′xa′ and abb′x fragments; also recorded: inhibited activity of all fragments including the isolated the a and a′ domains” and the IC50 (SARS-CoV-2 M^pro) was 6.5 µM. For the same compound, the “shift in molecular weight of PDI in SDS polyacrylamide gel” value (PDI [4]) was “did not induce a shift in molecular weight”.
